# Measurements taken from publication PMC5218480 (PLoS ONE, 2017).
# Test system: MV-4-11 cells
# Experiment: Gene expression microarray analysis (Affymetrix PrimeView) and GSEA
# Type: cell-based, human
# Set-up: RFU PODN (11730768_x_at) / Fold change /veh PODN (11730768_x_at) / RFU LINC00158 (11744669_a_at) / Fold change /veh LINC00158 (11744669_a_at) / RFU DUSP10 (11751237_a_at) / Fold change /veh DUSP10 (11751237_a_at) / RFU ID3 (11757404_x_at) / Fold change /veh ID3 (11757404_x_at) / RFU PLEKHG5 (11737974_s_at) / Fold change /veh PLEKHG5 (11737974_s_at) / RFU LRRC4B (11730491_at) / Fold change /veh LRRC4B (11730491_at) / RFU GIMAP4 (11747438_a_at) / Fold change /veh GIMAP4 (11747438_a_at) / RFU KRT8 (11758183_x_at) / Fold change /veh KRT8 (11758183_x_at) / RFU CNN1 (11734310_a_at) / Fold change /veh CNN1 (11734310_a_at) / RFU VPS37D (11726825_at) / Fold change /veh VPS37D (11726825_at) / RFU C10orf10 (11716522_x_at) / Fold change /veh C10orf10 (11716522_x_at) / RFU KIR2DL2 /// KIR2DL4 /// KIR2DL5A /// KIR2DL5B /// KIR2DS1 /// KIR2DS2 /// KIR2DS3 /// KIR2DS4 /// KIR3DL3 /// KIR3DL3 /// KIR3DS1 (11738374_at) / Fold change /veh KIR2DL2 /// KIR2DL4 /// KIR2DL5A /// KIR2DL5B /// KIR2DS1 /// KIR2DS2 /// KIR2DS3 /// KIR2DS4 /// KIR3DL3 /// KIR3DL3 /// KIR3DS1 (11738374_at) / RFU C1QL1 (11718748_at) / Fold change /veh C1QL1 (11718748_at) / RFU TMPRSS4 (11747572_a_at) / Fold change /veh TMPRSS4 (11747572_a_at) / RFU HAMP (11756126_x_at) / Fold change /veh HAMP (11756126_x_at) / RFU RNFT2 (11725882_a_at) / Fold change /veh RNFT2 (11725882_a_at) / RFU NR4A2 (11747474_a_at) / Fold change /veh NR4A2 (11747474_a_at) / RFU ABCC12 (11746883_a_at) / Fold change /veh ABCC12 (11746883_a_at) / RFU TMEM136 (11760407_x_at) / Fold change /veh TMEM136 (11760407_x_at) / RFU CLDN22 /// WWC2 (11732394_at) / Fold change /veh CLDN22 /// WWC2 (11732394_at) / RFU HLA-DPB1 (11760878_x_at) / Fold change /veh HLA-DPB1 (11760878_x_at) / RFU SPINT1 (11716480_a_at) / Fold change /veh SPINT1 (11716480_a_at) / RFU GAP43 (11754022_s_at) / Fold change /veh GAP43 (11754022_s_at) / RFU A4GNT (11735810_at) / Fold change /veh A4GNT (11735810_at) / RFU PRB3 (11715151_x_at) / Fold change /veh PRB3 (11715151_x_at) / RFU TUBB4B (11761932_at) / Fold change /veh TUBB4B (11761932_at) / RFU CAPN14 (11732068_a_at) / Fold change /veh CAPN14 (11732068_a_at) / RFU TMCC2 (11721928_a_at) / Fold change /veh TMCC2 (11721928_a_at) / RFU IRGQ (11745062_a_at) / Fold change /veh IRGQ (11745062_a_at) / RFU FAM174B (11720279_a_at) / Fold change /veh FAM174B (11720279_a_at) / RFU TMPRSS4 (11748680_a_at) / Fold change /veh TMPRSS4 (11748680_a_at) / RFU FAM212B (11763350_a_at) / Fold change /veh FAM212B (11763350_a_at) / RFU PLEKHG5 (11743358_a_at) / Fold change /veh PLEKHG5 (11743358_a_at) / RFU ZSCAN30 (11745921_a_at) / Fold change /veh ZSCAN30 (11745921_a_at) / RFU CMKLR1 (11741424_a_at) / Fold change /veh CMKLR1 (11741424_a_at) / RFU LOC101060620 /// MAPK8IP1 (11723275_at) / Fold change /veh LOC101060620 /// MAPK8IP1 (11723275_at) / RFU SPTSSB (11747773_x_at) / Fold change /veh SPTSSB (11747773_x_at) / RFU PRSS12 (11739890_at) / Fold change /veh PRSS12 (11739890_at) / RFU BIN1 (11741810_x_at) / Fold change /veh BIN1 (11741810_x_at) / RFU WNT11 (11732464_a_at) / Fold change /veh WNT11 (11732464_a_at) / RFU C10orf10 (11716521_a_at) / Fold change /veh C10orf10 (11716521_a_at) / RFU C5orf56 (11738089_at) / Fold change /veh C5orf56 (11738089_at) / RFU CYB561 (11721691_x_at) / Fold change /veh CYB561 (11721691_x_at) / RFU ANKRD19P (11752326_a_at) / Fold change /veh ANKRD19P (11752326_a_at) / RFU OR2T12 /// OR2T33 /// OR2T8 (11738714_s_at) / Fold change /veh OR2T12 /// OR2T33 /// OR2T8 (11738714_s_at) / RFU VCAN (11748164_a_at) / Fold change /veh VCAN (11748164_a_at) / RFU JSRP1 (11732532_at) / Fold change /veh JSRP1 (11732532_at) / RFU KRTAP10-11 (11738290_x_at) / Fold change /veh KRTAP10-11 (11738290_x_at) / RFU MYO3A (11730013_a_at) / Fold change /veh MYO3A (11730013_a_at) / RFU EBF3 (11725865_a_at) / Fold change /veh EBF3 (11725865_a_at) / RFU CAMK2N1 (11719241_x_at) / Fold change /veh CAMK2N1 (11719241_x_at) / RFU C5orf56 (11738088_a_at) / Fold change /veh C5orf56 (11738088_a_at) / RFU OLFML3 (11715873_a_at) / Fold change /veh OLFML3 (11715873_a_at) / RFU LOC100653217 /// NTM (11731650_a_at) / Fold change /veh LOC100653217 /// NTM (11731650_a_at) / RFU MAPK11 (11762145_a_at) / Fold change /veh MAPK11 (11762145_a_at) / RFU FIZ1 (11724087_x_at) / Fold change /veh FIZ1 (11724087_x_at) / RFU OASL (11726364_x_at) / Fold change /veh OASL (11726364_x_at) / RFU SOX15 (11748057_x_at) / Fold change /veh SOX15 (11748057_x_at) / RFU CD79A (11719716_a_at) / Fold change /veh CD79A (11719716_a_at) / RFU HIST1H1D (11736915_at) / Fold change /veh HIST1H1D (11736915_at) / RFU CASKIN2 (11723855_a_at) / Fold change /veh CASKIN2 (11723855_a_at) / RFU LOC730098 (11760151_x_at) / Fold change /veh LOC730098 (11760151_x_at) / RFU OR4N2 (11742367_at) / Fold change /veh OR4N2 (11742367_at) / RFU PRRT2 (11749266_a_at) / Fold change /veh PRRT2 (11749266_a_at) / RFU SNX32 (11753110_a_at) / Fold change /veh SNX32 (11753110_a_at) / RFU CDHR5 (11726645_a_at) / Fold change /veh CDHR5 (11726645_a_at) / RFU RCAN1 (11760418_a_at) / Fold change /veh RCAN1 (11760418_a_at) / RFU FAM167A (11723789_a_at) / Fold change /veh FAM167A (11723789_a_at) / RFU FAM26E (11764081_at) / Fold change /veh FAM26E (11764081_at) / RFU ISYNA1 (11749810_s_at) / Fold change /veh ISYNA1 (11749810_s_at) / RFU ACY1 (11761880_at) / Fold change /veh ACY1 (11761880_at) / RFU 11764098_at / Fold change /veh 11764098_at / RFU SAMD14 (11745864_x_at) / Fold change /veh SAMD14 (11745864_x_at) / RFU NPB (11741838_a_at) / Fold change /veh NPB (11741838_a_at) / RFU TMPRSS6 (11731388_a_at) / Fold change /veh TMPRSS6 (11731388_a_at) / RFU KRTAP10-2 (11738614_at) / Fold change /veh KRTAP10-2 (11738614_at) / RFU ARHGAP8 /// PRR5-ARHGAP8 (11727945_x_at) / Fold change /veh ARHGAP8 /// PRR5-ARHGAP8 (11727945_x_at) / RFU KRTAP5-7 /// NADSYN1 (11734609_at) / Fold change /veh KRTAP5-7 /// NADSYN1 (11734609_at) / RFU RASL12 (11751679_a_at) / Fold change /veh RASL12 (11751679_a_at) / RFU CDKN2B (11736163_a_at) / Fold change /veh CDKN2B (11736163_a_at) / RFU PRF1 (11729649_at) / Fold change /veh PRF1 (11729649_at) / RFU, ZNF638 /// ZNF638-IT1 / Fold change vs veh, ZNF638 /// ZNF638-IT1 / RFU, PANK3 / Fold change vs veh, PANK3 / RFU, SH3YL1 / Fold change vs veh, SH3YL1 / RFU, ZEB2 / Fold change vs veh, ZEB2 / RFU, NRIP1 / Fold change vs veh, NRIP1 / RFU, PTTG1IP / Fold change vs veh, PTTG1IP / RFU, CAPN2 / Fold change vs veh, CAPN2 / RFU, MED14 / Fold change vs veh, MED14 / RFU, SNORA58 / Fold change vs veh, SNORA58 / RFU, C1orf63 / Fold change vs veh, C1orf63 / RFU, LRRFIP1 / Fold change vs veh, LRRFIP1 / RFU, NDUFAF7 / Fold change vs veh, NDUFAF7 / RFU, SLC12A2 / Fold change vs veh, SLC12A2 / RFU, IBTK / Fold change vs veh, IBTK / RFU, ESF1 / Fold change vs veh, ESF1 / Fold change vs veh, TMEM50B / RFU, TAOK1 / Fold change vs veh, TAOK1 / RFU, ACBD3 / Fold change vs veh, ACBD3 / RFU, TMA16 / Fold change vs veh, TMA16 / RFU, RWDD3 / Fold change vs veh, RWDD3 / RFU, BCAT1 / Fold change vs veh, BCAT1 / RFU, EDEM3 / Fold change vs veh, EDEM3 / RFU, TMEM33 / Fold change vs veh, TMEM33 / RFU, WDR75 / Fold change vs veh, WDR75 / RFU, AHCTF1 / Fold change vs veh, AHCTF1 / RFU, TFRC / Fold change vs veh, TFRC / RFU, ZDHHC17 / Fold change vs veh, ZDHHC17 / RFU, NOM1 / Fold change vs veh, NOM1 / RFU, ARL8B / Fold change vs veh, ARL8B / RFU, ZBTB11 / Fold change vs veh, ZBTB11 / RFU, TAMM41 / Fold change vs veh, TAMM41 / RFU, KIAA1704 /// LOC100996395 / Fold change vs veh, KIAA1704 /// LOC100996395 / RFU, ING1 / Fold change vs veh, ING1 / RFU, TRMT61B / Fold change vs veh, TRMT61B / RFU, FUBP3 / Fold change vs veh, FUBP3 / RFU, TP53 / Fold change vs veh, TP53 / RFU, TNKS2 / Fold change vs veh, TNKS2 / RFU, ZFP14 / Fold change vs veh, ZFP14 / RFU, ACTR2 / Fold change vs veh, ACTR2 / RFU, PPP3R1 / Fold change vs veh, PPP3R1 / RFU, PIK3R1 / Fold change vs veh, PIK3R1 / RFU, HNRNPA1 / Fold change vs veh, HNRNPA1 / RFU, RNF170 / Fold change vs veh, RNF170 / RFU, ZNF28 / Fold change vs veh, ZNF28 / RFU, RNGTT / Fold change vs veh, RNGTT / RFU, OGT / Fold change vs veh, OGT / RFU, BRD1 / Fold change vs veh, BRD1 / RFU, MARS / Fold change vs veh, MARS / RFU, ZNF655 / Fold change vs veh, ZNF655 / RFU, FAHD1 / Fold change vs veh, FAHD1 / RFU, BDP1 / Fold change vs veh, BDP1 / RFU, LRRCC1 / Fold change vs veh, LRRCC1 / RFU, ARID1A / Fold change vs veh, ARID1A / RFU, ZNF146 / Fold change vs veh, ZNF146 / RFU, ZNF330 / Fold change vs veh, ZNF330 / RFU, GPN3 / Fold change vs veh, GPN3 / RFU, C9orf123 / Fold change vs veh, C9orf123 / RFU, N4BP2L2 / Fold change vs veh, N4BP2L2 / RFU, ARFIP1 / Fold change vs veh, ARFIP1 / RFU, FAM179B / Fold change vs veh, FAM179B / RFU, BCL10 / Fold change vs veh, BCL10 / RFU, UHRF1BP1L / Fold change vs veh, UHRF1BP1L / RFU, BET1 / Fold change vs veh, BET1 / RFU, CNOT2 / Fold change vs veh, CNOT2 / RFU, ZNF268 / Fold change vs veh, ZNF268 / Fold change vs veh, ZNF507 / RFU, DGCR2 / Fold change vs veh, DGCR2 / RFU, WDSUB1 / Fold change vs veh, WDSUB1 / Fold change vs veh, HSP90B1 /// MIR3652 / RFU, ADSS / Fold change vs veh, ADSS / RFU, GK / Fold change vs veh, GK / RFU, ZNF148 / Fold change vs veh, ZNF148 / RFU, TAF9 / Fold change vs veh, TAF9 / RFU, SLC1A5 / Fold change vs veh, SLC1A5 / RFU, SLMO2 / Fold change vs veh, SLMO2 / RFU, ABCC4 / Fold change vs veh, ABCC4 / RFU, LOC101060439 /// RAP1B / Fold change vs veh, LOC101060439 /// RAP1B / RFU, RFX7 / Fold change vs veh, RFX7 / RFU, GTPBP10 / Fold change vs veh, GTPBP10 / RFU, CNEP1R1 / Fold change vs veh, CNEP1R1 / RFU, BIVM-ERCC5 /// ERCC5 / Fold change vs veh, BIVM-ERCC5 /// ERCC5 / RFU, ILF3 / Fold change vs veh, ILF3 / RFU 11762660_at / Fold change /veh 11762660_at / RFU VCAN (11757783_s_at) / Fold change /veh VCAN (11757783_s_at) / RFU DDX43 (11728927_at) / Fold change /veh DDX43 (11728927_at) / RFU KRT8 (11758188_x_at) / Fold change /veh KRT8 (11758188_x_at) / RFU NKD1 (11759106_at) / Fold change /veh NKD1 (11759106_at) / RFU SRD5A1 (11742802_a_at) / Fold change /veh SRD5A1 (11742802_a_at) / RFU TPSAB1 /// TPSB2 (11721975_s_at) / Fold change /veh TPSAB1 /// TPSB2 (11721975_s_at) / RFU GSTM3 (11746129_a_at) / Fold change /veh GSTM3 (11746129_a_at) / RFU IL23R (11737362_x_at) / Fold change /veh IL23R (11737362_x_at) / RFU TMEM51 (11727254_a_at) / Fold change /veh TMEM51 (11727254_a_at) / RFU PIWIL2 (11732686_x_at) / Fold change /veh PIWIL2 (11732686_x_at) / RFU ORM1 (11744905_x_at) / Fold change /veh ORM1 (11744905_x_at) / RFU CCDC152 (11743942_at) / Fold change /veh CCDC152 (11743942_at) / RFU ECM1 (11717891_a_at) / Fold change /veh ECM1 (11717891_a_at) / RFU IL23R (11748794_a_at) / Fold change /veh IL23R (11748794_a_at) / RFU TNFAIP8L3 (11732012_x_at) / Fold change /veh TNFAIP8L3 (11732012_x_at) / RFU MBOAT4 (11741988_at) / Fold change /veh MBOAT4 (11741988_at) / RFU 11764193_at / Fold change /veh 11764193_at / RFU TMEM53 (11763286_at) / Fold change /veh TMEM53 (11763286_at) / RFU MAGEB2 (11727129_at) / Fold change /veh MAGEB2 (11727129_at) / RFU TMEM200A (11744735_a_at) / Fold change /veh TMEM200A (11744735_a_at) / RFU CCDC152 (11751479_a_at) / Fold change /veh CCDC152 (11751479_a_at) / RFU FAM211A (11726209_a_at) / Fold change /veh FAM211A (11726209_a_at) / RFU RGS16 (11746705_a_at) / Fold change /veh RGS16 (11746705_a_at) / RFU VCAN (11755009_s_at) / Fold change /veh VCAN (11755009_s_at) / RFU RHOB (11743442_s_at) / Fold change /veh RHOB (11743442_s_at) / RFU RGS16 (11720943_a_at) / Fold change /veh RGS16 (11720943_a_at) / RFU RGS16 (11720944_at) / Fold change /veh RGS16 (11720944_at) / RFU, VPS4B / Fold change vs veh, VPS4B / RFU, CREB1 / Fold change vs veh, CREB1 / RFU, DNAJC13 / Fold change vs veh, DNAJC13 / RFU, GNAQ / Fold change vs veh, GNAQ / RFU, CDK5R1 / Fold change vs veh, CDK5R1 / RFU, ZRANB3 / Fold change vs veh, ZRANB3 / RFU, CUL4A / Fold change vs veh, CUL4A / RFU, CCNY / Fold change vs veh, CCNY / RFU, UFL1 / Fold change vs veh, UFL1 / RFU, COG3 / Fold change vs veh, COG3 / RFU, DIAPH2 / Fold change vs veh, DIAPH2 / RFU, SKA2 / Fold change vs veh, SKA2 / RFU, AFF3 / Fold change vs veh, AFF3 / RFU, LMF1 / Fold change vs veh, LMF1 / RFU, IPO11 / Fold change vs veh, IPO11 / RFU, DFFB / Fold change vs veh, DFFB / RFU, FOXP1 / Fold change vs veh, FOXP1 / RFU, CARD8 / Fold change vs veh, CARD8 / RFU, STRN3 / Fold change vs veh, STRN3 / RFU, ADK / Fold change vs veh, ADK / RFU, RASSF2 / Fold change vs veh, RASSF2 / RFU, WIPF1 / Fold change vs veh, WIPF1 / RFU, LARP1B / Fold change vs veh, LARP1B / RFU, RASA1 / Fold change vs veh, RASA1 / RFU, RB1 / Fold change vs veh, RB1 / RFU, PPFIA1 / Fold change vs veh, PPFIA1 / RFU, MAT2A / Fold change vs veh, MAT2A / RFU, CCT5 / Fold change vs veh, CCT5 / RFU, WDR92 / Fold change vs veh, WDR92 / RFU, CUX1 / Fold change vs veh, CUX1 / RFU, TTC7A / Fold change vs veh, TTC7A / RFU, TMEM135 / Fold change vs veh, TMEM135 / RFU, DEPTOR / Fold change vs veh, DEPTOR / RFU, CPM / Fold change vs veh, CPM / RFU, DNAJB6 / Fold change vs veh, DNAJB6 / RFU, CACNA2D3 / Fold change vs veh, CACNA2D3 / RFU, DTX4 / Fold change vs veh, DTX4 / RFU, TFCP2 / Fold change vs veh, TFCP2 / RFU, GMCL1 /// GMCL1P1 / Fold change vs veh, GMCL1 /// GMCL1P1 / RFU, AEBP2 / Fold change vs veh, AEBP2 / RFU, SNHG1 /// SNORD22 /// SNORD25 /// SNORD26 /// SNORD27 /// SNORD28 /// SNORD29 /// SNORD31 / Fold change vs veh, SNHG1 /// SNORD22 /// SNORD25 /// SNORD26 /// SNORD27 /// SNORD28 /// SNORD29 /// SNORD31 / Fold change (Aza/veh), C12orf56 (ProbeSet 11735607_a_at) / Fold change (ACY-1035/veh), C12orf56 (ProbeSet 11735607_a_at) / Fold change (Aza/veh), FGFR1OP (ProbeSet 11751329_s_at) / Fold change (ACY-1035/veh), FGFR1OP (ProbeSet 11751329_s_at) / Fold change (Aza/veh), VPS36 (ProbeSet 11739960_a_at) / Fold change (ACY-1035/veh), VPS36 (ProbeSet 11739960_a_at) / RFU SYPL1 (11715823_x_at) / Fold change /veh SYPL1 (11715823_x_at) / RFU IGFBP7 (11715501_s_at) / Fold change /veh IGFBP7 (11715501_s_at) / RFU REEP3 (11722064_at) / Fold change /veh REEP3 (11722064_at) / RFU IGLL1 (11728026_x_at) / Fold change /veh IGLL1 (11728026_x_at): dose or concentration left out as unconfirmed
# Settings: ProbeSet 11718701_a_at; LIST B
structure (smiles),measurement,value
Nc1ccc(-c2cccs2)cc1NC(=O)c1ccc2c(c1)cc(C1CC1)n2CCN1CCOCC1 [ACY-1035],"RFU, ARFIP1",56.28 RFU
